Data reported in patent publication US9156872B2, “2′-azido substituted nucleoside derivatives and methods of use thereof for the treatment of viral diseases” (priority 2011, dated 2015).
Read-outs that look alike come from different tables or passages of the source.

Experiments:
replicon cells (1b-Con1) = assay: Replicon activity assay (1b-Con1 replicon cells, real-time RT-PCR); assay type: cell-based, HCV; conditions: Hepatitis C virus, 72 h, read-out: Replicon (1b) EC50
replicon cells [1] = test system: replicon cells
[2] = target: HCV NS5B RNA-dependent RNA polymerase (1b-BKΔ55) (Hepatitis C virus genotype 1b, UniProt P26663); assay: biochemical
replicon cells [3] = assay: Cytotoxicity in replicon cells (MTS assay, CellTiter 96); conditions: CC50, MTS assay, three days post dosing
HCV replicon cells = assay: Cell-based HCV replicon assay (replicon RNA by Taqman real time PCR); conditions: read-out: 1b EC50

Sequence of HCV NS5B RNA-dependent RNA polymerase (1b-BKΔ55) (P26663 2420-2955 limits assumed, stated change not applied): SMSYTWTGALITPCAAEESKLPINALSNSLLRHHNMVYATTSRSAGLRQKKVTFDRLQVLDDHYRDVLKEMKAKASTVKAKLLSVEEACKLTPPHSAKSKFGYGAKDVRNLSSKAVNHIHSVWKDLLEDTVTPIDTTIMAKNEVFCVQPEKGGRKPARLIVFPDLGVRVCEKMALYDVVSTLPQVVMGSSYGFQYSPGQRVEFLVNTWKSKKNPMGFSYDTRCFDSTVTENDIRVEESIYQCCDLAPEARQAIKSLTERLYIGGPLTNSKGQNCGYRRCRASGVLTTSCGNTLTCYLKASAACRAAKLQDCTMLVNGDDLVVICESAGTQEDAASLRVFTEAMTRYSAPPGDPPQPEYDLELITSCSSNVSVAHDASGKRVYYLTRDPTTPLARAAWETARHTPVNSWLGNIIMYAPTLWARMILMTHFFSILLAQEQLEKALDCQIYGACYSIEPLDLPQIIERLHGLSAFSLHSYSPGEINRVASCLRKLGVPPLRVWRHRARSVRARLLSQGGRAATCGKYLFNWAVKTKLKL

Structure (SMILES)	EC50 (replicon cells (1b-Con1)) [nM]	Cytotoxicity (replicon cells [1]) [µM]	further results
C[C@H](NP(=O)(OC[C@H]1O[C@@H](n2ccc(=O)[nH]c2=O)[C@](C)(N=[N+]=[N-])[C@@H]1O)Oc1ccc2c(c1)OCO2)C(=O)OCc1ccccc1 (some centres unmarked) [drawing 888]	1200	–	–
CC(C)OC(=O)[C@H](C)NP(=O)(OC[C@H]1O[C@@H](n2ccc(=O)[nH]c2=O)[C@](C)(N=[N+]=[N-])[C@@H]1O)Oc1ccccc1 (some centres unmarked)	3100	>100	–
C[C@@]1(N=[N+]=[N-])[C@H](O)[C@@H](COP(=O)(O)OP(=O)(O)OP(=O)(O)O)O[C@H]1n1ccc(=O)[nH]c1=O [Compound 74]	–	–	IC50 [2]: 55 µM
COc1nc(N)nc2c1ncn2C1O[C@@H]2COP(=O)(OC(C)C)O[C@H]2[C@@]1(C)N=[N+]=[N-] (some centres unmarked)	–	–	EC50 (replicon cells (1b-Con1); 1b-Con1 replicon cells, three days post-dosing): 8300 nM; Cytotoxicity (replicon cells [3]): >100 µM
CC(C)OC(=O)[C@H](C)NP(=O)(OC[C@H]1O[C@@H](n2ccc(=O)[nH]c2=O)[C@](C)(N=[N+]=[N-])[C@@H]1O)Oc1ccc(Cl)c(Cl)c1 (some centres unmarked) [drawing 890]	7600	42	–
CCOC(=O)[C@H](C)NP(=O)(OC[C@H]1O[C@@H](n2cnc3c(N4CCC4)nc(N)nc32)[C@](C)(N=[N+]=[N-])[C@@H]1O)Oc1ccccc1 (some centres unmarked) [drawing 882]	1500	>100	–
CCOc1nc(N)nc2c1ncn2[C@@H]1O[C@H](COP(=O)(N[C@@H](C)C(=O)OC)Oc2ccc(Cl)cc2)[C@@H](O)[C@@]1(C)N=[N+]=[N-] (some centres unmarked) [drawing 887]	900	25	–
CCOC(=O)[C@H](C)NP(=O)(OC[C@H]1O[C@@H](n2cnc3c(OCC)nc(N)nc32)[C@](C)(N=[N+]=[N-])[C@@H]1O)Oc1ccccc1 (some centres unmarked) [drawing 881]	1000	>100	–
CC(C)COC(=O)[C@H](C)NP(=O)(OC[C@H]1O[C@@H](n2ccc(=O)[nH]c2=O)[C@](C)(N=[N+]=[N-])[C@@H]1O)Oc1ccccc1 (some centres unmarked) [drawing 892]	800	55	–
C[C@@]1(N=[N+]=[N-])[C@H](O)C(COP(=O)(O)OP(=O)(O)OP(=O)(O)O)O[C@H]1n1ccc(N)nc1=O (some centres unmarked) [Compound 75]	–	–	IC50 [2]: 10 µM
CC(C)OC(=O)[C@H](C)NP(=O)(OC[C@H]1O[C@@H](n2ccc(N)nc2=O)[C@](C)(N=[N+]=[N-])[C@@H]1O)Oc1ccccc1Cl (some centres unmarked) [drawing 885]	1300	>100	–
COC(=O)[C@H](C)NP(=O)(OC[C@H]1O[C@@H](n2cnc3c(NC4CC4)nc(N)nc32)[C@](C)(N=[N+]=[N-])[C@@H]1O)Oc1ccccc1Cl (some centres unmarked) [drawing 883]	1400	>100	–
CCOC(=O)c1ccccc1OP(=O)(N[C@@H](C)C(=O)OC)OC[C@H]1O[C@@H](n2ccc(=O)[nH]c2=O)[C@](C)(N=[N+]=[N-])[C@@H]1O (some centres unmarked)	2800	>100	–
C[C@@]1(N=[N+]=[N-])[C@H](O)C(COP(=O)(O)OP(=O)(O)OP(=O)(O)O)O[C@H]1n1cnc2c(=O)[nH]c(N)nc21 (some centres unmarked) [Compound 76]	–	–	IC50 [2]: 1.7 µM
CCOC(=O)[C@H](C)NP(=O)(OC[C@H]1O[C@@H](n2cnc3c(OC)nc(N)nc32)[C@](C)(N=[N+]=[N-])C1O)Oc1ccc(Cl)cc1 (some centres unmarked)	1200	>100	–
CCCC(CCC)COC(=O)[C@H](C)NP(=O)(OC[C@H]1O[C@@H](n2ccc(=O)[nH]c2=O)[C@](C)(N=[N+]=[N-])[C@@H]1O)Oc1ccccc1 (some centres unmarked) [drawing 886]	2100	83	–
CCOC(=O)[C@H](C)NP(=O)(OC[C@H]1O[C@@H](n2cnc3c(OC)nc(N)nc32)[C@](C)(N=[N+]=[N-])[C@@H]1O)Oc1ccccc1 (some centres unmarked) [drawing 880]	400	>100	–

Structure (SMILES)	EC50 (replicon cells (1b-Con1)) [nM]	Cytotoxicity (replicon cells [1]) [µM]	further results
COC(=O)[C@H](C)NP(=O)(OC[C@H]1O[C@@H](n2ccc(N)nc2=O)[C@](C)(N=[N+]=[N-])[C@@H]1O)Oc1ccc(Cl)c(Cl)c1 (some centres unmarked)	35000	>100	–
CCOc1nc(N)nc2c1ncn2[C@@H]1O[C@H](COP(=O)(N[C@@H](C)C(=O)OC(C)C)Oc2ccccc2)[C@@H](O)[C@@]1(C)N=[N+]=[N-] (some centres unmarked) [Compound 20]	–	–	EC50 (HCV replicon cells; Hepatitis C virus, 72 h): 1000 nM
COC(=O)[C@H](C)NP(=O)(OC)OC[C@H]1O[C@@H](n2ccc(N)nc2=O)[C@](C)(N=[N+]=[N-])[C@@H]1O (single isomer, unassigned) [Compound 346]	–	–	EC50 (HCV replicon cells): > 100000 nM
COC(=O)[C@H](C)NP(=O)(OC[C@H]1O[C@@H](n2cnc3c(OC)nc(N)nc32)[C@](C)(N=[N+]=[N-])[C@@H]1O)Oc1ccc(F)cc1 (some centres unmarked) [Compound 242]	–	–	EC50 (HCV replicon cells; Hepatitis C virus, 72 h): 2600 nM
COc1nc(N)nc2c1ncn2[C@@H]1O[C@H](COP(=O)(N[C@@H](C)C(=O)OC(C)C)Oc2ccc(Cl)cc2)[C@@H](O)[C@@]1(C)N=[N+]=[N-] (single isomer, unassigned) [Compound 294]	–	–	EC50 (HCV replicon cells): 3400 nM
COc1nc(N)nc2c1ncn2[C@@H]1O[C@H](COP(=O)(N[C@@H](C)C(=O)OCC(C)(C)C)Oc2ccccc2)[C@@H](O)[C@@]1(C)N=[N+]=[N-] (some centres unmarked) [Compound 55]	–	–	EC50 (HCV replicon cells; Hepatitis C virus, 72 h): 1100 nM
COC(=O)[C@H](C)NP(=O)(OC[C@H]1O[C@@H](n2cnc3c(OC)nc(N)nc32)[C@](C)(N=[N+]=[N-])C1O)Oc1cccc2ccccc12 (single isomer, unassigned) [Compound 255]	–	–	EC50 (HCV replicon cells): 1200 nM
COC(=O)[C@H](C)NP(=O)(OC[C@H]1O[C@@H](n2ccc(=O)[nH]c2=O)[C@](C)(N=[N+]=[N-])[C@@H]1O)Oc1ccc(Cl)c(Cl)c1 (some centres unmarked) [Compound 229]	–	–	EC50 (HCV replicon cells; Hepatitis C virus, 72 h): 30 nM
CCOc1nc(N)nc2c1ncn2[C@@H]1O[C@H](COP(=O)(N[C@@H](C)C(=O)OC2CCC2)Oc2ccccc2)[C@@H](O)[C@@]1(C)N=[N+]=[N-] (single isomer, unassigned) [Compound 362]	–	–	EC50 (HCV replicon cells): 2600 nM
COC(=O)[C@H](C)NP(=O)(OC[C@H]1O[C@@H](n2ccc(N)nc2=O)[C@](C)(N=[N+]=[N-])[C@@H]1O)Oc1ccc(F)cc1 (single isomer, unassigned) [Compound 187]	–	–	EC50 (HCV replicon cells): 22000 nM
CCOc1nc(N)nc2c1ncn2[C@@H]1O[C@H](COP(=O)(N[C@@H](C)C(=O)OC)Oc2ccc(F)cc2)[C@@H](O)[C@@]1(C)N=[N+]=[N-] (some centres unmarked) [Compound 35]	–	–	EC50 (HCV replicon cells; Hepatitis C virus, 72 h): 1600 nM
COc1nc(N)nc2c1ncn2[C@@H]1O[C@H](CO)[C@@H](O)[C@@]1(C)N=[N+]=[N-] [Compound 51]	–	–	EC50 (HCV replicon cells; Hepatitis C virus, 72 h, HCV replicon 1b, cells harvested on day 3): > 100000 nM
COC(=O)[C@H](C)NP(=O)(OC[C@H]1O[C@@H](n2cnc3c(N4CCC4)nc(N)nc32)[C@](C)(N=[N+]=[N-])[C@@H]1O)Oc1ccccc1 (some centres unmarked) [Compound 390]	–	–	EC50 (HCV replicon cells; Hepatitis C virus, 72 h): 3400 nM
COc1nc(N)nc2c1ncn2[C@@H]1O[C@H](COP(=O)(N[C@@H](C)C(=O)OCc2ccccc2)Oc2ccccc2)[C@@H](O)[C@@]1(C)N=[N+]=[N-] (single isomer, unassigned) [Compound 279]	–	–	EC50 (HCV replicon cells): 1000 nM
CC(C)OP1(=O)OC[C@H]2O[C@@H](n3ccc(=O)[nH]c3=O)[C@](C)(N=[N+]=[N-])[C@@H]2O1 (single isomer, unassigned) [Compound 563]	–	–	EC50 (HCV replicon cells; HCV replicon 1b, cells harvested on day 3): > 100000 nM
CCCOC(=O)[C@H](C)N[P@](=O)(OC[C@H]1O[C@@H](n2ccc(=O)[nH]c2=O)[C@](C)(N=[N+]=[N-])[C@@H]1O)Oc1cccc2ccccc12 (single isomer, unassigned) [Compound 376]	–	–	EC50 (HCV replicon cells; Hepatitis C virus, 72 h): 2200 nM
